According to US20160296529A1, “AMINOTRIAZOLOPYRIDINE FOR USE IN THE TREATMENT OF INFLAMMATION, AND PHARMACEUTICAL COMPOSITIONS THEREOF” (priority 2012, published 2016):
pIC50: −log10 of the molar value. Where “and” joins values, the source holds several entries; their conditions need not be identical. Equal values may be shown once. Read-outs that look alike come from different tables or passages of the source.

Assays:
[1] = target: T1, Recombinant human JAK2 catalytic domain (Homo sapiens, UniProt O60674); test: JAK2 Ulight-JAK1 peptide assay; type: biochemical
T1 construct: amino acids 808-1132; catalog number PV4210; GST; purchased Invitrogen PV4210
Procedure: 0.0125 mU of JAK2 was incubated with 25 nM Ulight-JAK1(tyr1023) peptide (Perkin Elmer catalog number TRF0121) in kinase reaction buffer (25 mM HEPES pH7.0, 0.01% Triton X-100, 7.5 mM MgCl2, 2 mM DTT, 7.5 μM ATP) with or without 4 μL containing test compound or vehicle (DMSO, 1% final concentration), in a total volume of 20 μL, in a white 384 Opti plate (Perkin Elmer, catalog number 6007290). After 60 min at room temperature, reactions were stopped by adding 20 μL/well of detection mixture (1× detection buffer (Perkin Elmer, catalog number CR97-100C), 0.5 nM Europium-anti-phosphotyrosine (PT66) (Perkin Elmer, catalog number AD0068), 10 mM EDTA). Readout was performed using the Envision with excitation at 320 nm and measuring emission at 615 nm (Perkin Elmer). Kinase activity was calculated by subtracting relative fluorescence units (RFU) obtained in the presence of a positive control inhibitor (10 μM staurosporine) from RFU obtained in the presence of vehicle. The ability of a test compound to inhibit this activity was determined as:
Percentage inhibition−((RFU determined for sample with test compound present−RFU determined for sample with positive control inhibitor) divided by (RFU determined in the presence of vehicle−RFU determined for sample with positive control inhibitor))*100. […]

rat CIA model = test: CIA model 2 (rat collagen induced arthritis, ankle diameter); type: in vivo, Female Lewis rats
Text: Female Lewis rats (n=76) that weighed 165-194 grams (mean approx. 178 g) on arthritis day 0 were obtained from Charles River Laboratories, Inc., Wilmington, Mass., (ref#393739). Animals were identified by a distinct number at the base of the tail delineating group and animal number.
Upon arrival, animals were housed 4/cage in shoe-box polycarbonate cages and acclimated for 8 days prior to being immunized with type II collagen. No concurrent medications were given.
During the acclimation and study periods, animals were housed in a laboratory environment with temperatures ranging 19-25° […]. and relative humidity of 30%-70%. Automatic timers provided 12 h of light and 12 h of dark. Animals were allowed access ad libitum to food and water.
Acclimated female Lewis rats were anesthetized with Isoflurane and receive subcutaneous/intradermal (SC/ID) injections with 300 μL of Freund's Incomplete Adjuvant (Difco, Detroit, Mich.) containing 2 mg/mL bovine type II collagen (Elastin Products, Owensville, Mo.) at the base of the tail and 2 sites on the back on day −9 and on day −3.
Collagen was prepared by making a 4 mg/mL solution in 0.01N Acetic acid. Equal volumes of collagen and Freund's incomplete adjuvant, were emulsified by hand mixing until a bead of this material holds its form when placed in water. Each animal received 300 μL of the mixture on each occasion divided over 3 subcutaneous sites on back.
On study day 1, onset of arthritis occurred and animals were randomized into treatment groups. After randomization, all cages were labelled with protocol number, group number, and animal numbers. Randomization into each group was done after ankle joint swelling was obviously established and there was good evidence of bilateral disease.
Animals with established type II collagen arthritis were treated daily (QD) by the oral (PO) route for 13 days with vehicle (methylcellulose 0.5% (w/v)), or with active compound(s) prepared in methylcellulose, 0.5% (w/v). Oral dosing was initiated on arthritis day 1 and continued daily (QD at 24 h intervals) through day 13. Animals were terminated on arthritis day 14.
The severity of the arthritis was evaluated by measuring the diameter of both ankles on the animals. Caliper measurements of ankles were taken every day beginning on day 0, with a Digitrix II micrometer (Fowler & NSK). Baseline measurements were taken using one ankle with values rounded to one-thousandth of an inch. Measurements were confirmed as clinically normal (0.260-0.264 in) by comparison with historical values for rats based on a range of body weights. Baseline measurements were then applied to both ankles, and these values remain with the animal so long as the ankle was clinically normal with good definition of all the ankle bones and no evidence of inflammation. Animals were terminated on day 14.

T1 sequence (O60674 808-1132): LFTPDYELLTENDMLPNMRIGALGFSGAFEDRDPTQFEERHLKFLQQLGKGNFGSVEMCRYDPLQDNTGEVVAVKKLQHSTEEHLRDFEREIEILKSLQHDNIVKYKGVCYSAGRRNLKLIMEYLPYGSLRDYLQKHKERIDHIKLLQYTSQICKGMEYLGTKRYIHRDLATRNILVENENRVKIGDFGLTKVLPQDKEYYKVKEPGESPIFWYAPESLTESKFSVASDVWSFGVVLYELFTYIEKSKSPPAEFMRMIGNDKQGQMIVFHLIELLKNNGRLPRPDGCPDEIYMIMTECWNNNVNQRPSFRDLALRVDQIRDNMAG

For `Nc1nc2cccc(-c3ccc(CN4CCS(=O)(=O)CC4)cc3)n2n1` [Formula I, 5-[4-(1,1-Dioxothiomorpholin-4-ylmethyl)-phenyl]-[1,2,4]triazolo[1,5-a]pyridin-2-ylamine], the pIC50 ([1]; average, read-out: IC50 (average)) was 6.40, the pIC50 ([1]; individual determinations, read-out: IC50) was 5.99 and 6.29 and 6.45 and 6.86 and 6.44 and 6.51 and 6.14 and 6.82 and 6.69 and 6.77 and the “significance to vehicle control (ANOVA) in the CIA second model” value (rat CIA model; group G: Formula I 25 mg/kg PO QD) was “mg/kg (*) (((*) = p ≦ 0.05 ANOVA to vehicle control))”. For the same compound, the ankle diameter (rat CIA model; group G: Formula I 25 mg/kg PO QD, day 0) was 0.2629 inches, the ankle diameter (rat CIA model; group G: Formula I 25 mg/kg PO QD, day 1) was 0.2717 inches and the ankle diameter (rat CIA model; group G: Formula I 25 mg/kg PO QD, day 2) was 0.2747 inches. For the same compound, the ankle diameter (rat CIA model; group G: Formula I 25 mg/kg PO QD, day 3) was 0.2826 inches, the ankle diameter (rat CIA model; group G: Formula I 25 mg/kg PO QD, day 4) was 0.2892 inches and the ankle diameter (rat CIA model; group G: Formula I 25 mg/kg PO QD, day 5) was 0.2973 inches. For the same compound, the ankle diameter (rat CIA model; group G: Formula I 25 mg/kg PO QD, day 6) was 0.3064 inches, the ankle diameter (rat CIA model; group G: Formula I 25 mg/kg PO QD, day 7) was 0.3108 inches and the ankle diameter (rat CIA model; group G: Formula I 25 mg/kg PO QD, day 8) was 0.3150 inches. It also gave an ankle diameter (rat CIA model; group G: Formula I 25 mg/kg PO QD, day 9) of 0.3089 inches, an ankle diameter (rat CIA model; group G: Formula I 25 mg/kg PO QD, day 10) of 0.3046 inches and an ankle diameter (rat CIA model; group G: Formula I 25 mg/kg PO QD, day 11) of 0.3025 inches. For the same compound, the ankle diameter (rat CIA model; group G: Formula I 25 mg/kg PO QD, day 12) was 0.3006 inches, the ankle diameter (rat CIA model; group G: Formula I 25 mg/kg PO QD, day 13) was 0.2996 inches and the ankle diameter (rat CIA model; group G: Formula I 25 mg/kg PO QD, day 14) was 0.3016 inches. The “significance to vehicle control (ANOVA) in the CIA second model” value (rat CIA model; group H: Formula I 50 mg/kg PO QD) was “mg/kg (*) (((*) = p ≦ 0.05 ANOVA to vehicle control))”, the ankle diameter (rat CIA model; group H: Formula I 50 mg/kg PO QD, day 0) was 0.2624 inches and the ankle diameter (rat CIA model; group H: Formula I 50 mg/kg PO QD, day 1) was 0.2718 inches. The ankle diameter (rat CIA model; group H: Formula I 50 mg/kg PO QD, day 2) was 0.2705 inches, the ankle diameter (rat CIA model; group H: Formula I 50 mg/kg PO QD, day 3) was 0.2814 inches and the ankle diameter (rat CIA model; group H: Formula I 50 mg/kg PO QD, day 4) was 0.2886 inches. For the same compound, the ankle diameter (rat CIA model; group H: Formula I 50 mg/kg PO QD, day 5) was 0.2970 inches, the ankle diameter (rat CIA model; group H: Formula I 50 mg/kg PO QD, day 6) was 0.3061 inches and the ankle diameter (rat CIA model; group H: Formula I 50 mg/kg PO QD, day 7) was 0.3110 inches. It also gave an ankle diameter (rat CIA model; group H: Formula I 50 mg/kg PO QD, day 8) of 0.3160 inches, an ankle diameter (rat CIA model; group H: Formula I 50 mg/kg PO QD, day 9) of 0.3085 inches and an ankle diameter (rat CIA model; group H: Formula I 50 mg/kg PO QD, day 10) of 0.3032 inches. The ankle diameter (rat CIA model; group H: Formula I 50 mg/kg PO QD, day 11) was 0.3041 inches, the ankle diameter (rat CIA model; group H: Formula I 50 mg/kg PO QD, day 12) was 0.3039 inches and the ankle diameter (rat CIA model; group H: Formula I 50 mg/kg PO QD, day 13) was 0.3014 inches. The ankle diameter (rat CIA model; group H: Formula I 50 mg/kg PO QD, day 14) was 0.2999 inches.
